Experimental data: US20240245711A1, “A 19-NOR C3,3-DISUBSTITUTED C21-N-PYRAZOLYL STEROID FOR THE TREATMENT OF MAJOR DEPRESSIVE DISORDER” (Sage Therapeutics, Inc., priority 2021, published 2024)
Several values for one entry are separate records, joined by “and”; a condition that tells them apart may be missing. Equal values may be shown once.

Test system: adult subjects with Major Depressive Disorder
Test: Phase 3 open-label 1-year study: need for re-treatment (number of and time to re-treatments)
Assay type: in vivo, human
Description: Secondary Objective: To assess the need for re-treatment with Compound (1) following initial treatment in adults with MDD currently experiencing an MDE over a 1-year period, and to assess the response of initial treatment and re-treatment(s) with Compound (1) following an initial 2-week treatment period in adults with MDD currently experiencing an MDE over a 1-year period.
Secondary Endpoints: The need for re-treatment with Compound (1) as assessed by: time to first re-treatment (Kaplan-Meier curves), number of subjects achieving the requirements for re-treatment, number of re-treatment cycles for each subject, the response of initial treatment and/or re-treatment as assessed by: change from baseline in the 17-item Hamilton Rating Scale for Depression (HAM-D) total score at the end of each 14-day treatment (initial and/or re-treatment) period, HAM-D response at the end of each 14-day treatment (initial and/or re-treatment) period, defined as a ≥50% reduction in HAM-D score from baseline, HAM-D remission at the end of each 14-day treatment (initial and/or re-treatment) period, defined as HAM-D total score≤7, Clinical Global Impression-Improvement (CGI-I) response, defined as “much improved” or “very much improved”, at the end of each 14-day treatment (initial and/or re-treatment) period, change from baseline in Clinical Global Impression-Severity (CGI-S) score at the end of each 14-day treatment (initial and/or re-treatment) period.
Subjects who continued in the Observation Period were monitored remotely via PHQ-9 assessment every two weeks. If PHQ-9 score was >=10 at any assessment, PHQ-9 assessment was switch to every week until the score came down below 10 or the subject was dosed with Compound (1) in a subsequent cycle, whichever was earlier. A subject was to come back to the site for HAM-D assessment within a week of PHQ-9 score >=10; if the HAM-D total score >=20 and at least 56 days had elapsed since the last dose of Compound (1), another dosing cycle of Compound (1) were to start. If any of these criteria were not met, the subject couldn't be treated with Compound (1) at that time. Without the trigger of PHQ-9>=10 the subject was to have a clinic visit every 8 weeks. A subject could have at most 5 cycles of treatment within a year. FIG. 2 is a depiction of the eligibility criteria of the study.
The cohorts pertaining to the different doses that the subjects received were defined as following: • 50 mg cohort: This cohort includes subjects who have initiated treatment with 50 mg and received re-treatment with 50 mg only. • 30 mg cohort: This cohort includes subjects who have initiated treatment with 30 mg regardless of the dose they have received in re-treatments. • Low dose cohort: This cohort includes subjects who have initiated treatment with 30 mg and received re-treatment with 30 mg only. • Dose switch cohort: This cohort includes subjects who have received initial treatment with 30 mg and at least one subsequent re-treatment with 50 mg. • Study Period X: starts on the date of the first dose of Compound (1) in cycle X and goes up to one day prior to the first dose of the next cycle. In some embodiments, X is any number from 1 to 5. • Treatment Period X: starts on the date of the first dose of Compound (1) in cycle X and goes up to one day after the last dose in cycle X. In some embodiments, X is any number from 1 to 5. • Treatment Cycle X: starts on the date of the first dose of Compound (1) in cycle X and goes up to 14 days after the last dose in cycle X. The treatment cycles may be denoted as C1-C5. • Observation period X: starts the day after Treatment Cycle X ends and goes up to one day prior to the start of next treatment cycle. In some embodiments, X is any number from 1 to 5.
Analysis Sets: The safety set was defined as all subjects who were administered study drug. The period-specific safety set includes subjects in the safety set who were administered study drug in the corresponding treatment cycle. […]

[1] = 50 mg Cohort (N = 146), Examples 2-3 cut-off
[2] = 50 mg Cohort FAS (146), one-year follow-up (Example 4)
[3] = 50 mg Cohort, Examples 2-3 cut-off
[4] = Cycle 3, 50 mg Cohort (FAS), 1 subject

C[C@@]1(O)CC[C@H]2[C@H](CC[C@@H]3[C@@H]2CC[C@]2(C)[C@@H](C(=O)Cn4cc(C#N)cn4)CC[C@@H]32)C1 [Compound (1), 1-(2-((3R,5R,8R,9R,10S,13S,14S,17S)-3-hydroxy-3,13-dimethylhexadecahydro-1H-cyclopenta[a]phenanthren-17-yl)-2-oxoethyl)-1H-pyrazole-4-carbonitrile]
Average (range) number of re-treatments per subject over 1-year follow-up (30 mg Cohort): 1.2 (0-4) and 1.2 | Average total number of treatments per subject (30 mg Cohort): 2.2 | Dosed in at least 1 re-treatment cycle, % of eligible (30 mg Cohort (472 eligible)): 279 (59.1%) | Qualified to be retreated in at least 1 more cycle (HAM-D total score >= 20), % of eligible (30 mg Cohort (472 eligible)): 305 (64.6%) | FAS Subjects Dosed in C2, n (%) of FAS (30 mg Cohort Overall): 279 (57.1%) | FAS Subjects dosed in C3, n (%) of FAS (30 mg Cohort Overall): 154 (31.5%) | FAS Subjects dosed in C4, n (%) of FAS (30 mg Cohort Overall): 96 (19.6%) | FAS Subjects dosed in C5, n (%) of FAS (30 mg Cohort Overall): 43 (8.8%) | Subjects with No re-treatment (Cycle 1), n (%) of FAS (30 mg cohort (N = 489)): 210 (42.9%) | Subjects with Only 1 re-treatment (Cycle 2), n (%) of FAS (30 mg cohort (N = 489)): 125 (25.6%) | Subjects with Only 2 re-treatment (Cycle 3), n (%) of FAS (30 mg cohort (N = 489)): 58 (11.9%) | Subjects with Only 3 re-treatment (Cycle 4), n (%) of FAS (30 mg cohort (N = 489)): 53 (10.8%) | Subjects with Only 4 re-treatment (Cycle 5), n (%) of FAS (30 mg cohort (N = 489)): 43 (8.8%) and 43 8.8%) | Dosed in at least 1 re-treatment cycle, % of eligible (50 mg Cohort (122 eligible)): 26 (21.3%) | Qualified to be retreated in at least 1 more cycle (HAM-D total score >= 20), % of eligible (50 mg Cohort (122 eligible)): 36 (29.5%) | Subjects with No re-treatment (Cycle 1), n (%) of FAS [1]: 120 (82.2%) | Subjects with Only 1 re-treatment (Cycle 2), n (%) of FAS [1]: 25 (17.1%) | Subjects with Only 2 re-treatment (Cycle 3), n (%) of FAS [1]: 1 (0.7%) | Subjects who received 1 treatment course in total [2]: 54.8% | Subjects who received 2 treatment courses in total [2]: 24.7% | Subjects who received 3 treatment courses in total [2]: 10.3% | Subjects who received 4 treatment courses in total [2]: 6.8% | Subjects who received 5 treatment courses in total [2]: 3.4% | Subjects who received at most one additional treatment cycle [2]: 79.5% | FAS Subjects Dosed in C2, n (%) of FAS [3]: 26 (17.8%) | FAS Subjects dosed in C3, n (%) of FAS [3]: 1 (0.7%) | Proportion with zero or at most 1 additional treatment cycle, by use of antidepressant therapy at baseline (50 mg Cohort, one-year follow-up (Example 4)): similar | n/N: FAS subjects eligible and dosed in Cycle X / eligible for dosing in Cycle X (Cycle 2, 50 mg Cohort): 26/122 | Time to re-treatment since last dose in previous cycle, Mean (SD) (Cycle 2, 50 mg Cohort (FAS)): 70.5 (18.52) Days | Time to re-treatment since last dose in previous cycle, Median (Cycle 2, 50 mg Cohort (FAS)): 62.5 days | Time to re-treatment since last dose in previous cycle, Min - Max (Cycle 2, 50 mg Cohort (FAS)): 58 to 122 days | n/N: FAS subjects eligible and dosed in Cycle X / eligible for dosing in Cycle X (Cycle 2, Dose Switch): 80/80 | Time to re-treatment since last dose in previous cycle, Mean (SD) (Cycle 2, Dose Switch (FAS)): 116.5 (70.26) Days | Time to re-treatment since last dose in previous cycle, Median (Cycle 2, Dose Switch (FAS)): 91 days | Time to re-treatment since last dose in previous cycle, Min - Max (Cycle 2, Dose Switch (FAS)): 58 to 318 days | n/N: FAS subjects eligible and dosed in Cycle X / eligible for dosing in Cycle X (Cycle 2, Low Dose): 199/392 | Time to re-treatment since last dose in previous cycle, Mean (SD) (Cycle 2, Low Dose (FAS)): 99.5 (52.15) Days | Time to re-treatment since last dose in previous cycle, Median (Cycle 2, Low Dose (FAS)): 78 days | Time to re-treatment since last dose in previous cycle, Min - Max (Cycle 2, Low Dose (FAS)): 58 to 297 days | n/N: FAS subjects eligible and dosed in Cycle X / eligible for dosing in Cycle X (Cycle 3, 50 mg Cohort): 1/4 | Time to re-treatment since last dose in previous cycle, Mean (SD) [4]: 58 (NA) Days and 58.0 (NA), 58.0, Days | Time to re-treatment since last dose in previous cycle, Median [4]: 58 Days and 58.0 (NA), 58.0, Days | Time to re-treatment since last dose in previous cycle, Min - Max [4]: 58-58 Days | n/N: FAS subjects eligible and dosed in Cycle X / eligible for dosing in Cycle X (Cycle 3, Dose Switch): 71/76 | Time to re-treatment since last dose in previous cycle, Mean (SD) (Cycle 3, Dose Switch (FAS)): 92.5 (34.44) Days | Time to re-treatment since last dose in previous cycle, Median (Cycle 3, Dose Switch (FAS)): 79 days | Time to re-treatment since last dose in previous cycle, Min - Max (Cycle 3, Dose Switch (FAS)): 58 to 214 days | n/N: FAS subjects eligible and dosed in Cycle X / eligible for dosing in Cycle X (Cycle 3, Low Dose): 83/166 | Time to re-treatment since last dose in previous cycle, Mean (SD) (Cycle 3, Low Dose (FAS)): 87.2 (34.97) Days | Time to re-treatment since last dose in previous cycle, Median (Cycle 3, Low Dose (FAS)): 72 days | Time to re-treatment since last dose in previous cycle, Min - Max (Cycle 3, Low Dose (FAS)): 52 to 217 days | n/N: FAS subjects eligible and dosed in Cycle X / eligible for dosing in Cycle X (Cycle 4, Dose Switch): 53/63 | Time to re-treatment since last dose in previous cycle, Mean (SD) (Cycle 4, Dose Switch (FAS)): 69.9 (13.40) Days | Time to re-treatment since last dose in previous cycle, Median (Cycle 4, Dose Switch (FAS)): 66 days | Time to re-treatment since last dose in previous cycle, Min - Max (Cycle 4, Dose Switch (FAS)): 57 to 120 days | n/N: FAS subjects eligible and dosed in Cycle X / eligible for dosing in Cycle X (Cycle 4, Low Dose): 43/74 | Time to re-treatment since last dose in previous cycle, Mean (SD) (Cycle 4, Low Dose (FAS)): 72.1 (17.67) Days | Time to re-treatment since last dose in previous cycle, Median (Cycle 4, Low Dose (FAS)): 65 days | Time to re-treatment since last dose in previous cycle, Min - Max (Cycle 4, Low Dose (FAS)): 57 to 113 days | n/N: FAS subjects eligible and dosed in Cycle X / eligible for dosing in Cycle X (Cycle 5, Dose Switch): 23/45 | Time to re-treatment since last dose in previous cycle, Mean (SD) (Cycle 5, Dose Switch (FAS)): 61.4 (6.24) Days
